Assay results as given in PubChem BioAssay AID1963985 (Molecular Pharmacology Branch, DTP, NCI, 2024).

Test system: 252836-082-R-J2-PDC tumor spheroids, viability
Assay: Anticancer human tumor 252836-082-R-J2-PDC patient-derived head and neck squamous cell carcinoma cell line growth inhibition [PI3K]
Conditions: spheroids with HUVEC and MSC; for IC50: curve of first compound; for viability, T/C: stronger effect = lower value
Procedure, shortened: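 Stroma-containing spheroids: tumor line, pooled-donor HUVEC, hMSC. Treatments: targeted agents with PI3K inhibitors. Dosing: clinically relevant, half-log spacing, 10 microM ceiling without known Cmax. Read-out: cell viability.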
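Further: spheroids exposed to agents for seven days before readout.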
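Wherever viability, T/C is given: percent of vehicle DMSO control viability so 100% = untreated growth.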

CCCS(=O)(=O)Nc1ccc(F)c(C(=O)c2c[nH]c3ncc(-c4ccc(Cl)cc4)cc23)c1F + CC(Nc1ncnc2nc[nH]c12)c1cc2cccc(Cl)c2c(=O)n1-c1ccccc1
IC50 (second compound 0.0316 µM): 5.06 µM | IC50 (second compound 0.1 µM): 5.5 µM | IC50 (second compound 0.316 µM): 5.32 µM | IC50 (second compound 1 µM): 4.9 µM | IC50 (second compound 3.16 µM): 4.83 µM | IC50 (second compound 10 µM): 4.09 µM | viability, T/C (second compound 0.0316 µM, first compound 0.0316 µM): 101% | viability, T/C (second compound 0.0316 µM, first compound 0.1 µM): 93.7% | viability, T/C (second compound 0.0316 µM, first compound 0.316 µM): 109% | viability, T/C (second compound 0.0316 µM, first compound 1 µM): 92.9% | viability, T/C (second compound 0.0316 µM, first compound 3.16 µM): 78.7% | viability, T/C (second compound 0.0316 µM, first compound 10 µM): 8.82% | viability, T/C (second compound 0.1 µM, first compound 0.0316 µM): 99.6% | viability, T/C (second compound 0.1 µM, first compound 0.1 µM): 92.9% | viability, T/C (second compound 0.1 µM, first compound 0.316 µM): 109% | viability, T/C (second compound 0.1 µM, first compound 1 µM): 91.9% | viability, T/C (second compound 0.1 µM, first compound 3.16 µM): 88.6% | viability, T/C (second compound 0.1 µM, first compound 10 µM): 8.07% | viability, T/C (second compound 0.316 µM, first compound 0.0316 µM): 98.8% | viability, T/C (second compound 0.316 µM, first compound 0.1 µM): 84% | viability, T/C (second compound 0.316 µM, first compound 0.316 µM): 82.7% | viability, T/C (second compound 0.316 µM, first compound 1 µM): 90.4% | viability, T/C (second compound 0.316 µM, first compound 3.16 µM): 83.1% | viability, T/C (second compound 0.316 µM, first compound 10 µM): 9.77% | viability, T/C (second compound 1 µM, first compound 0.0316 µM): 89.2% | viability, T/C (second compound 1 µM, first compound 0.1 µM): 90.2% | viability, T/C (second compound 1 µM, first compound 0.316 µM): 95.6% | viability, T/C (second compound 1 µM, first compound 1 µM): 104% | viability, T/C (second compound 1 µM, first compound 3.16 µM): 76.5% | viability, T/C (second compound 1 µM, first compound 10 µM): 7.1% | viability, T/C (second compound 3.16 µM, first compound 0.0316 µM): 86.7% | viability, T/C (second compound 3.16 µM, first compound 0.1 µM): 87.5% | viability, T/C (second compound 3.16 µM, first compound 0.316 µM): 88.4% | viability, T/C (second compound 3.16 µM, first compound 1 µM): 91.5% | viability, T/C (second compound 3.16 µM, first compound 3.16 µM): 72.7% | viability, T/C (second compound 3.16 µM, first compound 10 µM): 11.2% | viability, T/C (second compound 10 µM, first compound 0.0316 µM): 71.7% | viability, T/C (second compound 10 µM, first compound 0.1 µM): 73.2% | viability, T/C (second compound 10 µM, first compound 0.316 µM): 68.4% | viability, T/C (second compound 10 µM, first compound 1 µM): 65% | viability, T/C (second compound 10 µM, first compound 3.16 µM): 62.3% | viability, T/C (second compound 10 µM, first compound 10 µM): 10.3%
